# According to PubChem BioAssay (NCI):
#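 In this assay, cells in 96-well plates receive the compound at five concentrations for 48 hours. Endpoints are linearly interpolated between the surrounding concentrations. TGI: total growth inhibition.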
# Legend:
# Assay in all cases: NCI tumour cell line growth inhibition, 48 h
# MDA-MB-435 = tested on: MDA-MB-435
# U251 CNS = tested on: U251 CNS
# HT29 colon = tested on: HT29 colon
# OVCAR-3 ovarian = tested on: OVCAR-3 ovarian
# MOLT-4 leukemia = tested on: MOLT-4 leukemia
# ACHN renal = tested on: ACHN renal
# UO-31 renal = tested on: UO-31 renal
# NCI/ADR-RES ovarian = tested on: NCI/ADR-RES ovarian
# CCRF-CEM leukemia = tested on: CCRF-CEM leukemia
# HCT-15 colon = tested on: HCT-15 colon
# SK-MEL-28 melanoma = tested on: SK-MEL-28 melanoma
# HS 578T breast = tested on: HS 578T breast
# MDA-N = tested on: MDA-N
# MALME-3M melanoma = tested on: MALME-3M melanoma
# NCI-H522 lung = tested on: NCI-H522 lung
# SK-MEL-5 melanoma = tested on: SK-MEL-5 melanoma
# M14 melanoma = tested on: M14 melanoma
# SN12C renal = tested on: SN12C renal
# MCF7 breast = tested on: MCF7 breast
# NCI-H460 lung = tested on: NCI-H460 lung
# DU-145 prostate = tested on: DU-145 prostate
# SF-268 CNS = tested on: SF-268 CNS
# KM12 colon = tested on: KM12 colon
# A549 NSCLC = tested on: A549 NSCLC
# SW-620 colon = tested on: SW-620 colon
# TK-10 renal = tested on: TK-10 renal
# BT-549 breast = tested on: BT-549 breast
# OVCAR-4 ovarian = tested on: OVCAR-4 ovarian
# CAKI-1 renal = tested on: CAKI-1 renal
# HCC-2998 colon = tested on: HCC-2998 colon
# HOP-62 NSCLC = tested on: HOP-62 NSCLC
# T-47D breast = tested on: T-47D breast
# 786-0 renal = tested on: 786-0 renal
# SR leukemia = tested on: SR leukemia
# RPMI-8226 leukemia = tested on: RPMI-8226 leukemia
# LOX IMVI melanoma = tested on: LOX IMVI melanoma
# SNB-19 CNS = tested on: SNB-19 CNS
# EKVX NSCLC = tested on: EKVX NSCLC
# UACC-257 melanoma = tested on: UACC-257 melanoma
# SF-539 CNS = tested on: SF-539 CNS
# SK-MEL-2 melanoma = tested on: SK-MEL-2 melanoma
# SF-295 CNS = tested on: SF-295 CNS
# IGROV1 ovarian = tested on: IGROV1 ovarian
# SNB-75 CNS = tested on: SNB-75 CNS
# HOP-92 NSCLC = tested on: HOP-92 NSCLC
# RXF 393 renal = tested on: RXF 393 renal
# A498 renal = tested on: A498 renal
# OVCAR-5 ovarian = tested on: OVCAR-5 ovarian
# OVCAR-8 ovarian = tested on: OVCAR-8 ovarian
# PC-3 prostate = tested on: PC-3 prostate
# SK-OV-3 ovarian = tested on: SK-OV-3 ovarian
# MDA-MB-231 breast = tested on: MDA-MB-231 breast
# NCI-H226 lung = tested on: NCI-H226 lung
# NCI-H23 lung = tested on: NCI-H23 lung
# HCT-116 colon = tested on: HCT-116 colon
# UACC-62 melanoma = tested on: UACC-62 melanoma
# HL-60(TB) leukemia = tested on: HL-60(TB) leukemia
# K-562 leukemia = tested on: K-562 leukemia
# COLO 205 colon = tested on: COLO 205 colon
smiles,measurement,setting,value
O=Cc1ccc2c(c1)CC1(C2)Cc2ccc3c(c2C1)CCC3 (centres undefined),TGI,MDA-MB-435,7.4 µM
same,TGI,U251 CNS,22.7 µM
same,TGI,HT29 colon,36.8 µM
same,TGI,OVCAR-3 ovarian,19.5 µM
same,TGI,MOLT-4 leukemia,31.9 µM
same,TGI,ACHN renal,> 100 µM
same,TGI,UO-31 renal,25 µM
same,TGI,NCI/ADR-RES ovarian,27.8 µM
same,TGI,CCRF-CEM leukemia,21.1 µM
same,TGI,HCT-15 colon,34.4 µM
same,TGI,SK-MEL-28 melanoma,29.5 µM
same,TGI,HS 578T breast,21.5 µM
same,TGI,MDA-N,4.85 µM
same,TGI,MALME-3M melanoma,21.8 µM
same,TGI,NCI-H522 lung,> 83.6 µM
same,TGI,SK-MEL-5 melanoma,15.9 µM
same,TGI,M14 melanoma,21.3 µM
same,TGI,SN12C renal,23.7 µM
same,TGI,MCF7 breast,22.8 µM
same,TGI,NCI-H460 lung,38.7 µM
same,TGI,DU-145 prostate,> 69 µM
same,TGI,SF-268 CNS,41.9 µM
same,TGI,KM12 colon,33.1 µM
same,TGI,A549 NSCLC,> 100 µM
same,TGI,SW-620 colon,15.2 µM
same,TGI,TK-10 renal,40.5 µM
same,TGI,BT-549 breast,18.6 µM
same,TGI,OVCAR-4 ovarian,16.9 µM
same,TGI,CAKI-1 renal,46.8 µM
same,TGI,HCC-2998 colon,> 60.3 µM
same,TGI,HOP-62 NSCLC,27.7 µM
same,TGI,T-47D breast,> 85.3 µM
same,TGI,786-0 renal,28.3 µM
same,TGI,SR leukemia,18.3 µM
same,TGI,RPMI-8226 leukemia,27.9 µM
same,TGI,LOX IMVI melanoma,15.9 µM
same,TGI,SNB-19 CNS,21 µM
same,TGI,EKVX NSCLC,> 59.2 µM
same,TGI,UACC-257 melanoma,33 µM
same,TGI,SF-539 CNS,26.1 µM
same,TGI,SK-MEL-2 melanoma,14 µM
same,TGI,SF-295 CNS,19.5 µM
same,TGI,IGROV1 ovarian,41.3 µM
same,TGI,SNB-75 CNS,28.9 µM
same,TGI,HOP-92 NSCLC,> 48.3 µM
same,TGI,RXF 393 renal,28.5 µM
same,TGI,A498 renal,> 61 µM
same,TGI,OVCAR-5 ovarian,> 69.2 µM
same,TGI,OVCAR-8 ovarian,29.8 µM
same,TGI,PC-3 prostate,18.2 µM
same,TGI,SK-OV-3 ovarian,45.1 µM
same,TGI,MDA-MB-231 breast,14.2 µM
same,TGI,NCI-H226 lung,37.8 µM
same,TGI,NCI-H23 lung,33.6 µM
same,TGI,HCT-116 colon,19.1 µM
same,TGI,UACC-62 melanoma,18.8 µM
same,TGI,HL-60(TB) leukemia,> 26.9 µM
same,TGI,K-562 leukemia,25.6 µM
same,TGI,COLO 205 colon,43.7 µM
